Experimental data reported in US20170029355A1, “LABILE ESTERS OF AGROCHEMICALS FOR CONTROLLED RELEASE AND REDUCTION OF OFF-SITE MOVEMENT” (Monsanto Technology LLC, priority 2011, published 2017).

Experiments:
[1] = Field dicamba volatility, airborne dicamba collected by air samplers (Example 34); type: physicochemical; settings: field plot, 0.5 lb/acre dicamba a.e. with ROUNDUP WEATHERMAX, airborne dicamba collected over 24 hours, maximum 86° F.
[2] = In vitro dicamba photo-release from photo-labile dicamba esters, acetonitrile/10% water solvent (Example 27); type: physicochemical; settings: acetonitrile containing 10% water
Protocol: This Example describes in vitro testing of dicamba photo-release by homogeneous solutions of photo-labile dicamba esters. The esters were dissolved in tetrahydrofuran (THF). Ester concentration was 0.1 mM. 25 ml of the solution was transferred to 22 mm tubes fabricated from graded seal quartz tubing with a 19/22 tapered seal at the top, which was closed with a tapered glass plug and secured with a plastic ring clamp. The solution was entirely below the quartz-to-glass transition, ensuring that the entire volume was exposed to the full spectrum.
The sealed tubes were placed in a Growth Chamber where they were exposed to simulated sunlight for 14 hours per day at 35° C. Dicamba concentrations in the solution were measured during the course of the photolysis.
A sample of the initial solution was reserved in a glass vial away from the light source and analyzed at the conclusion of the study, providing a measurement of the amount of dicamba present without illumination of the photolysis solution (the “dark control”).
This Example is another photolysis of photo-labile dicamba esters, but using acetonitrile containing 10% water by weight as the solvent. The experimental protocol is otherwise the same as in Example 18.

[3] = test system: velvetleaf; test: Greenhouse post-emergent control of velvetleaf by emulsifiable concentrates (Example 30); type: in vivo
Protocol: The efficacy of some photo-labile ester formulations from Example 28 for post-emergent control of velvetleaf was tested in the greenhouse. All formulations were tested at rates of 140, 280, 420, and 560 g dicamba equivalent per hectare rates and compared to the diglycolamine salt of dicamba (CLARITY®) at the same rates and untreated control plants. The velvetleaf plants were 10-15 cm in height at the time of spraying. Percent control was evaluated three weeks after treatment.
The methodology of Example 29 was used to evaluate the efficacy of several photo-labile esters of dicamba for post-emergent control of velvetleaf as emulsifiable concentrate formulations described in Example 28.

[4] = test system: Palmer amaranth; test: Extended pre-emergent control of Palmer amaranth; type: in vivo; settings: emulsifiable concentrate, 21 and 44 days after treatment

COc1c(Cl)ccc(Cl)c1C(=O)OCc1ccccc1[N+](=O)[O-] [Ester 1a, 2-Nitrobenzyl Ester of Dicamba]
average dicamba level from the five air samplers [1]: 1.2 ng/m^3

COc1c(Cl)ccc(Cl)c1C(=O)OCCc1ccccc1[N+](=O)[O-] [Ester 2, 2-Nitrophenethyl Ester of Dicamba]
Dark Control % dicamba ([2]; no illumination): 0%
Conversion to dicamba, 1 day ([2]; simulated sunlight, 1 day): 33%
Conversion to dicamba, 2 days ([2]; simulated sunlight, 2 days): 56%
Conversion to dicamba, 3 days ([2]; simulated sunlight, 3 days): 75%
Conversion to dicamba, 5 days ([2]; simulated sunlight, 5 days): 93%
Conversion to dicamba, 7 days ([2]; simulated sunlight, 7 days): 104%
Conversion to dicamba, 11 days ([2]; simulated sunlight, 11 days): 107%
Conversion to dicamba, 13 days ([2]; simulated sunlight, 13 days): 108%
Conversion to dicamba, 15 days ([2]; simulated sunlight, 15 days): 96%
Conversion to dicamba, 19 days ([2]; simulated sunlight, 19 days): 106%

COc1c(Cl)ccc(Cl)c1C(=O)Oc1cnc2ccccc2n1 [Ester 13a, 2-quinoxalinol ester of dicamba]
% Control of velvetleaf, 140 g/ha ([3]; 140 g/ha): 44%
% Control of velvetleaf, 280 g/ha ([3]; 280 g/ha): 69%
% Control of velvetleaf, 420 g/ha ([3]; 420 g/ha): 70%
% Control of velvetleaf, 560 g/ha ([3]; 560 g/ha): 83%
extended pre-emergent control of Palmer amaranth compared with the diglycolamine salt of dicamba, in words [4]: superior extended pre-emergent control
